This is an account of results in PubChem BioAssay (NCI).

Molecules are shown by their SMILES. “And” between values parts separate entries of the source, which are not always exact repeats. Identical values can stand only once.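 Each compound was tested at five concentrations against cells in 96-well plates for 48 hours. The concentration for 50% growth inhibition is given as GI50. TGI marks complete inhibition of growth.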 Some results are limits rather than exact numbers.

What all share (test): growth of human tumour cells (NCI), 48 h
The subject of assay [1] is SK-MEL-2 melanoma.
Assay [2] deals with EKVX NSCLC.
Assay [3] concerns NCI-H226 lung.
The test system of assay [4] is UACC-257 melanoma.
Assay [5] has as its system TK-10 renal.
Assay [6] has as its system HS 578T breast.
Assay [7] concerns OVCAR-5 ovarian.
The subject of assay [8] is MCF7 breast.
Assay [9] concerns SF-539 CNS.
In assay [10] the test system is CCRF-CEM leukemia.

For `C=CCNC(=S)Nc1sc2c(c1C(=O)OCC)CC(C)CC2` (configuration not stated), the TGI is 48.4 µM in assay [1]; 65.9 µM in [2]; 50.7 µM in assay [3]; 43.5 µM in [4]; 63.7 µM in assay [5]; above 100 µM in assay [6]. Moreover, the TGI is 76 µM in [7] and 45.4 µM in assay [8].
With `CCC1(O)CC(OC2CC(N(C)C)C(OC3CC4OC5CC(=O)C(C)OC5OC4C(C)O3)C(C)O2)c2c(cc3c(c2O)C(=O)c2c(O)ccc(O)c2C3=O)C1C(=O)OC` (configuration not stated), the GI50 in assay [1] is 0.00919 µM and 0.00439 µM and 0.00879 µM; in assay [5], 0.0168 µM and 0.00314 µM; in [7], 0.00138 µM and 0.00225 µM and 0.00943 µM. Further, the TGI in assay [1] is 0.0309 µM and 0.0149 µM and 0.0148 µM.
`O=C(O)c1ccccc1.[Ag]`: the TGI in assay [1] was 30.2 µM; in [9] it was 45.4 µM; in assay [2] it was 55.4 µM; in assay [3] it was above 100 µM; in assay [4] it was 10.2 µM; in assay [5] it was 19.6 µM. In addition, the TGI in assay [6] is above 71.9 µM; in assay [7] it was 45.1 µM; in assay [8], 36.5 µM.
`O=C(c1ccccc1)c1ccc2c(c1)nc1n2C(c2c(Cl)cccc2Cl)SC1` (configuration not stated): the TGI in assay [1], in [9], in [2], in [3], in assay [4] and in assay [5] was above 100 µM in each case. In addition, the TGI in [6], in [7] and in [8] was above 100 µM each time.
For the compound `C=C1C(=O)OC2/C=C(\C)C(OC(C)=O)C3OC3C(C)(O)CC(OC(=O)/C(C)=C/C)C12` (configuration not stated), the TGI in assay [1] came to 20.6 µM; in assay [9], 14.2 µM; in [2], 34.9 µM; in assay [3], 23.4 µM; in assay [4], 28.8 µM; in assay [5], 24.6 µM. The figures for the TGI in assay [10] and in assay [7] were 9.45 µM and 32.3 µM, respectively.
Consider `COc1ccc(Cn2c(C)nc3c2C(=O)c2ccccc2C3=O)cc1`, for which the TGI is 29.8 µM in [1]; 38.2 µM in assay [9]; 49.2 µM in assay [2]; 48.2 µM in [3]; 24.7 µM in [4]; above 75 µM in assay [5]. For the same compound, the TGI in assay [10] came to 37.3 µM.
Consider `CC1(C)O[C@H]2Cn3c(c(C#N)c4ccccc43)[C@H]2O1`, for which the TGI in assay [1], in assay [9], in assay [2], in assay [5], in assay [6] and in [7] was above 100 µM in each case. This compound also registered a TGI in assay [8] above 100 µM.
Take `CC12CC3C(CC1SCC(=O)O2)C3(C)C` (configuration not stated): the TGI in [1], in assay [9], in [2], in [4], in assay [5] and in [10] was above 100 µM throughout. In [7], the TGI was above 100 µM.
Regarding `COc1cc(CCc2cccnc2)cc(OC)c1OC`, the TGI in [9], in [2], in [3], in [4], in assay [5] and in assay [10] was above 100 µM each time. The compound also came in with a TGI in assay [7] above 100 µM.
Consider `COc1c2c(c3c(c1C1OC(C)[C@@H](C)O1)CC(C)(C)O3)C(=O)c1ccccc1C2=O` (some centres not stated), for which the TGI in assay [1], in [9], in assay [2], in [3], in assay [4] and in assay [5] was above 100 µM in each case. The TGI in [10] was 53.2 µM; in assay [7], above 100 µM.
On to `O=C(O)[C@H]1[C@@H](C2CCCCC2)O[C@@H](C2CCCCC2)O[C@H]1C(F)(F)F`, for which the TGI in [9] is above 100 µM; in assay [2] it was 43.1 µM; in assay [3] it was 41.6 µM; in assay [4], 96.1 µM; in assay [5] it was above 100 µM; in assay [6] it was 58.8 µM. Also, the TGI turned out to be 47.7 µM in assay [10] and 47.4 µM in assay [7].
As for `CC(=O)OCC1OC(Nc2[nH]c(=O)n(C)c(=O)c2-c2csc(N)n2)C(OC(C)=O)C(OC(C)=O)C1OC(C)=O` (configuration not stated), the TGI in assay [1], in assay [9], in assay [3], in [4], in assay [5] and in assay [10] was above 100 µM in each case. Besides, in assay [7], the TGI was above 100 µM.
With `Cc1nc2c(=S)[nH]ncc2[nH]1`, the TGI in [1], in assay [9], in assay [2], in assay [3], in [4] and in assay [5] was above 100 µM each time. Also, the TGI in assay [10], in assay [7] and in assay [8] was above 100 µM in each case.
For `COc1ccc(-c2nc(N)c(C#N)c3c2CCS(=O)(=O)c2ccc(C)cc2-3)cc1OC`, the TGI is 85.2 µM in assay [1]; above 100 µM in assay [3]; above 100 µM in [4]; above 100 µM in assay [5]; 77.6 µM in [6]; above 100 µM in [7].
Take `Cn1cnc([N+](=O)[O-])c1Sc1nc2cc(Cl)c(F)cc2[nH]1`: the TGI in assay [9] was 16.7 µM; in [2], 16.5 µM; in assay [3], 33 µM; in assay [4], 25.2 µM; in [5] it was 33 µM; in assay [7], above 100 µM.
Consider `COc1cccc2c1OC1c3ccccc3OCC1C2` (configuration not stated), for which the TGI in assay [1], in [9], in [2], in assay [3], in assay [4] and in assay [5] was above 100 µM each time. Besides, the TGI in [10], in assay [7] and in [8] was above 100 µM each time.
Take `O=C(Nc1cccc2ccccc12)Oc1ccccc1C1CCCCC1`: the TGI in assay [1] was found to be 40.4 µM; in assay [9] it was 32 µM; in [2], 65.9 µM; in assay [3], 32.7 µM; in assay [4], 29.8 µM; in assay [5] it was 72.3 µM. The TGI came to 53.7 µM in [10] and 32.1 µM in assay [7].
